Data taken from article PMC5218480 (PLoS ONE, 2017).

Test system: MV-4-11 cells
Test: Gene expression microarray analysis (Affymetrix PrimeView) and GSEA
Format: cell-based, human
Parameters: RFU PODN (11730768_x_at) / Fold change /veh PODN (11730768_x_at) / RFU LINC00158 (11744669_a_at) / Fold change /veh LINC00158 (11744669_a_at) / RFU DUSP10 (11751237_a_at) / Fold change /veh DUSP10 (11751237_a_at) / RFU ID3 (11757404_x_at) / Fold change /veh ID3 (11757404_x_at) / RFU PLEKHG5 (11737974_s_at) / Fold change /veh PLEKHG5 (11737974_s_at) / RFU LRRC4B (11730491_at) / Fold change /veh LRRC4B (11730491_at) / RFU GIMAP4 (11747438_a_at) / Fold change /veh GIMAP4 (11747438_a_at) / RFU KRT8 (11758183_x_at) / Fold change /veh KRT8 (11758183_x_at) / RFU CNN1 (11734310_a_at) / Fold change /veh CNN1 (11734310_a_at) / RFU VPS37D (11726825_at) / Fold change /veh VPS37D (11726825_at) / RFU C10orf10 (11716522_x_at) / Fold change /veh C10orf10 (11716522_x_at) / RFU KIR2DL2 /// KIR2DL4 /// KIR2DL5A /// KIR2DL5B /// KIR2DS1 /// KIR2DS2 /// KIR2DS3 /// KIR2DS4 /// KIR3DL3 /// KIR3DL3 /// KIR3DS1 (11738374_at) / Fold change /veh KIR2DL2 /// KIR2DL4 /// KIR2DL5A /// KIR2DL5B /// KIR2DS1 /// KIR2DS2 /// KIR2DS3 /// KIR2DS4 /// KIR3DL3 /// KIR3DL3 /// KIR3DS1 (11738374_at) / RFU C1QL1 (11718748_at) / Fold change /veh C1QL1 (11718748_at) / RFU TMPRSS4 (11747572_a_at) / Fold change /veh TMPRSS4 (11747572_a_at) / RFU HAMP (11756126_x_at) / Fold change /veh HAMP (11756126_x_at) / RFU RNFT2 (11725882_a_at) / Fold change /veh RNFT2 (11725882_a_at) / RFU NR4A2 (11747474_a_at) / Fold change /veh NR4A2 (11747474_a_at) / RFU ABCC12 (11746883_a_at) / Fold change /veh ABCC12 (11746883_a_at) / RFU TMEM136 (11760407_x_at) / Fold change /veh TMEM136 (11760407_x_at) / RFU CLDN22 /// WWC2 (11732394_at) / Fold change /veh CLDN22 /// WWC2 (11732394_at) / RFU HLA-DPB1 (11760878_x_at) / Fold change /veh HLA-DPB1 (11760878_x_at) / RFU SPINT1 (11716480_a_at) / Fold change /veh SPINT1 (11716480_a_at) / RFU GAP43 (11754022_s_at) / Fold change /veh GAP43 (11754022_s_at) / RFU A4GNT (11735810_at) / Fold change /veh A4GNT (11735810_at) / RFU PRB3 (11715151_x_at) / Fold change /veh PRB3 (11715151_x_at) / RFU TUBB4B (11761932_at) / Fold change /veh TUBB4B (11761932_at) / RFU CAPN14 (11732068_a_at) / Fold change /veh CAPN14 (11732068_a_at) / RFU TMCC2 (11721928_a_at) / Fold change /veh TMCC2 (11721928_a_at) / RFU IRGQ (11745062_a_at) / Fold change /veh IRGQ (11745062_a_at) / RFU FAM174B (11720279_a_at) / Fold change /veh FAM174B (11720279_a_at) / RFU TMPRSS4 (11748680_a_at) / Fold change /veh TMPRSS4 (11748680_a_at) / RFU FAM212B (11763350_a_at) / Fold change /veh FAM212B (11763350_a_at) / RFU PLEKHG5 (11743358_a_at) / Fold change /veh PLEKHG5 (11743358_a_at) / RFU ZSCAN30 (11745921_a_at) / Fold change /veh ZSCAN30 (11745921_a_at) / RFU CMKLR1 (11741424_a_at) / Fold change /veh CMKLR1 (11741424_a_at) / RFU LOC101060620 /// MAPK8IP1 (11723275_at) / Fold change /veh LOC101060620 /// MAPK8IP1 (11723275_at) / RFU SPTSSB (11747773_x_at) / Fold change /veh SPTSSB (11747773_x_at) / RFU PRSS12 (11739890_at) / Fold change /veh PRSS12 (11739890_at) / RFU BIN1 (11741810_x_at) / Fold change /veh BIN1 (11741810_x_at) / RFU WNT11 (11732464_a_at) / Fold change /veh WNT11 (11732464_a_at) / RFU C10orf10 (11716521_a_at) / Fold change /veh C10orf10 (11716521_a_at) / RFU C5orf56 (11738089_at) / Fold change /veh C5orf56 (11738089_at) / RFU CYB561 (11721691_x_at) / Fold change /veh CYB561 (11721691_x_at) / RFU ANKRD19P (11752326_a_at) / Fold change /veh ANKRD19P (11752326_a_at) / RFU OR2T12 /// OR2T33 /// OR2T8 (11738714_s_at) / Fold change /veh OR2T12 /// OR2T33 /// OR2T8 (11738714_s_at) / RFU VCAN (11748164_a_at) / Fold change /veh VCAN (11748164_a_at) / RFU JSRP1 (11732532_at) / Fold change /veh JSRP1 (11732532_at) / RFU KRTAP10-11 (11738290_x_at) / Fold change /veh KRTAP10-11 (11738290_x_at) / RFU MYO3A (11730013_a_at) / Fold change /veh MYO3A (11730013_a_at) / RFU EBF3 (11725865_a_at) / Fold change /veh EBF3 (11725865_a_at) / RFU CAMK2N1 (11719241_x_at) / Fold change /veh CAMK2N1 (11719241_x_at) / RFU C5orf56 (11738088_a_at) / Fold change /veh C5orf56 (11738088_a_at) / RFU OLFML3 (11715873_a_at) / Fold change /veh OLFML3 (11715873_a_at) / RFU LOC100653217 /// NTM (11731650_a_at) / Fold change /veh LOC100653217 /// NTM (11731650_a_at) / RFU MAPK11 (11762145_a_at) / Fold change /veh MAPK11 (11762145_a_at) / RFU FIZ1 (11724087_x_at) / Fold change /veh FIZ1 (11724087_x_at) / RFU OASL (11726364_x_at) / Fold change /veh OASL (11726364_x_at) / RFU SOX15 (11748057_x_at) / Fold change /veh SOX15 (11748057_x_at) / RFU CD79A (11719716_a_at) / Fold change /veh CD79A (11719716_a_at) / RFU HIST1H1D (11736915_at) / Fold change /veh HIST1H1D (11736915_at) / RFU CASKIN2 (11723855_a_at) / Fold change /veh CASKIN2 (11723855_a_at) / RFU LOC730098 (11760151_x_at) / Fold change /veh LOC730098 (11760151_x_at) / RFU OR4N2 (11742367_at) / Fold change /veh OR4N2 (11742367_at) / RFU PRRT2 (11749266_a_at) / Fold change /veh PRRT2 (11749266_a_at) / RFU SNX32 (11753110_a_at) / Fold change /veh SNX32 (11753110_a_at) / RFU CDHR5 (11726645_a_at) / Fold change /veh CDHR5 (11726645_a_at) / RFU RCAN1 (11760418_a_at) / Fold change /veh RCAN1 (11760418_a_at) / RFU FAM167A (11723789_a_at) / Fold change /veh FAM167A (11723789_a_at) / RFU FAM26E (11764081_at) / Fold change /veh FAM26E (11764081_at) / RFU ISYNA1 (11749810_s_at) / Fold change /veh ISYNA1 (11749810_s_at) / RFU ACY1 (11761880_at) / Fold change /veh ACY1 (11761880_at) / RFU 11764098_at / Fold change /veh 11764098_at / RFU SAMD14 (11745864_x_at) / Fold change /veh SAMD14 (11745864_x_at) / RFU NPB (11741838_a_at) / Fold change /veh NPB (11741838_a_at) / RFU TMPRSS6 (11731388_a_at) / Fold change /veh TMPRSS6 (11731388_a_at) / RFU KRTAP10-2 (11738614_at) / Fold change /veh KRTAP10-2 (11738614_at) / RFU ARHGAP8 /// PRR5-ARHGAP8 (11727945_x_at) / Fold change /veh ARHGAP8 /// PRR5-ARHGAP8 (11727945_x_at) / RFU KRTAP5-7 /// NADSYN1 (11734609_at) / Fold change /veh KRTAP5-7 /// NADSYN1 (11734609_at) / RFU RASL12 (11751679_a_at) / Fold change /veh RASL12 (11751679_a_at) / RFU CDKN2B (11736163_a_at) / Fold change /veh CDKN2B (11736163_a_at) / RFU PRF1 (11729649_at) / Fold change /veh PRF1 (11729649_at) / RFU, ZNF638 /// ZNF638-IT1 / Fold change vs veh, ZNF638 /// ZNF638-IT1 / RFU, PANK3 / Fold change vs veh, PANK3 / RFU, SH3YL1 / Fold change vs veh, SH3YL1 / RFU, ZEB2 / Fold change vs veh, ZEB2 / RFU, NRIP1 / Fold change vs veh, NRIP1 / RFU, PTTG1IP / Fold change vs veh, PTTG1IP / RFU, CAPN2 / Fold change vs veh, CAPN2 / RFU, MED14 / Fold change vs veh, MED14 / RFU, SNORA58 / Fold change vs veh, SNORA58 / RFU, C1orf63 / Fold change vs veh, C1orf63 / RFU, LRRFIP1 / Fold change vs veh, LRRFIP1 / RFU, NDUFAF7 / Fold change vs veh, NDUFAF7 / RFU, SLC12A2 / Fold change vs veh, SLC12A2 / RFU, IBTK / Fold change vs veh, IBTK / RFU, ESF1 / Fold change vs veh, ESF1 / Fold change vs veh, TMEM50B / RFU, TAOK1 / Fold change vs veh, TAOK1 / RFU, ACBD3 / Fold change vs veh, ACBD3 / RFU, TMA16 / Fold change vs veh, TMA16 / RFU, RWDD3 / Fold change vs veh, RWDD3 / RFU, BCAT1 / Fold change vs veh, BCAT1 / RFU, EDEM3 / Fold change vs veh, EDEM3 / RFU, TMEM33 / Fold change vs veh, TMEM33 / RFU, WDR75 / Fold change vs veh, WDR75 / RFU, AHCTF1 / Fold change vs veh, AHCTF1 / RFU, TFRC / Fold change vs veh, TFRC / RFU, ZDHHC17 / Fold change vs veh, ZDHHC17 / RFU, NOM1 / Fold change vs veh, NOM1 / RFU, ARL8B / Fold change vs veh, ARL8B / RFU, ZBTB11 / Fold change vs veh, ZBTB11 / RFU, TAMM41 / Fold change vs veh, TAMM41 / RFU, KIAA1704 /// LOC100996395 / Fold change vs veh, KIAA1704 /// LOC100996395 / RFU, ING1 / Fold change vs veh, ING1 / RFU, TRMT61B / Fold change vs veh, TRMT61B / RFU, FUBP3 / Fold change vs veh, FUBP3 / RFU, TP53 / Fold change vs veh, TP53 / RFU, TNKS2 / Fold change vs veh, TNKS2 / RFU, ZFP14 / Fold change vs veh, ZFP14 / RFU, ACTR2 / Fold change vs veh, ACTR2 / RFU, PPP3R1 / Fold change vs veh, PPP3R1 / RFU, PIK3R1 / Fold change vs veh, PIK3R1 / RFU, HNRNPA1 / Fold change vs veh, HNRNPA1 / RFU, RNF170 / Fold change vs veh, RNF170 / RFU, ZNF28 / Fold change vs veh, ZNF28 / RFU, RNGTT / Fold change vs veh, RNGTT / RFU, OGT / Fold change vs veh, OGT / RFU, BRD1 / Fold change vs veh, BRD1 / RFU, MARS / Fold change vs veh, MARS / RFU, ZNF655 / Fold change vs veh, ZNF655 / RFU, FAHD1 / Fold change vs veh, FAHD1 / RFU, BDP1 / Fold change vs veh, BDP1 / RFU, LRRCC1 / Fold change vs veh, LRRCC1 / RFU, ARID1A / Fold change vs veh, ARID1A / RFU, ZNF146 / Fold change vs veh, ZNF146 / RFU, ZNF330 / Fold change vs veh, ZNF330 / RFU, GPN3 / Fold change vs veh, GPN3 / RFU, C9orf123 / Fold change vs veh, C9orf123 / RFU, N4BP2L2 / Fold change vs veh, N4BP2L2 / RFU, ARFIP1 / Fold change vs veh, ARFIP1 / RFU, FAM179B / Fold change vs veh, FAM179B / RFU, BCL10 / Fold change vs veh, BCL10 / RFU, UHRF1BP1L / Fold change vs veh, UHRF1BP1L / RFU, BET1 / Fold change vs veh, BET1 / RFU, CNOT2 / Fold change vs veh, CNOT2 / RFU, ZNF268 / Fold change vs veh, ZNF268 / Fold change vs veh, ZNF507 / RFU, DGCR2 / Fold change vs veh, DGCR2 / RFU, WDSUB1 / Fold change vs veh, WDSUB1 / Fold change vs veh, HSP90B1 /// MIR3652 / RFU, ADSS / Fold change vs veh, ADSS / RFU, GK / Fold change vs veh, GK / RFU, ZNF148 / Fold change vs veh, ZNF148 / RFU, TAF9 / Fold change vs veh, TAF9 / RFU, SLC1A5 / Fold change vs veh, SLC1A5 / RFU, SLMO2 / Fold change vs veh, SLMO2 / RFU, ABCC4 / Fold change vs veh, ABCC4 / RFU, LOC101060439 /// RAP1B / Fold change vs veh, LOC101060439 /// RAP1B / RFU, RFX7 / Fold change vs veh, RFX7 / RFU, GTPBP10 / Fold change vs veh, GTPBP10 / RFU, CNEP1R1 / Fold change vs veh, CNEP1R1 / RFU, BIVM-ERCC5 /// ERCC5 / Fold change vs veh, BIVM-ERCC5 /// ERCC5 / RFU, ILF3 / Fold change vs veh, ILF3 / RFU 11762660_at / Fold change /veh 11762660_at / RFU VCAN (11757783_s_at) / Fold change /veh VCAN (11757783_s_at) / RFU DDX43 (11728927_at) / Fold change /veh DDX43 (11728927_at) / RFU KRT8 (11758188_x_at) / Fold change /veh KRT8 (11758188_x_at) / RFU NKD1 (11759106_at) / Fold change /veh NKD1 (11759106_at) / RFU SRD5A1 (11742802_a_at) / Fold change /veh SRD5A1 (11742802_a_at) / RFU TPSAB1 /// TPSB2 (11721975_s_at) / Fold change /veh TPSAB1 /// TPSB2 (11721975_s_at) / RFU GSTM3 (11746129_a_at) / Fold change /veh GSTM3 (11746129_a_at) / RFU IL23R (11737362_x_at) / Fold change /veh IL23R (11737362_x_at) / RFU TMEM51 (11727254_a_at) / Fold change /veh TMEM51 (11727254_a_at) / RFU PIWIL2 (11732686_x_at) / Fold change /veh PIWIL2 (11732686_x_at) / RFU ORM1 (11744905_x_at) / Fold change /veh ORM1 (11744905_x_at) / RFU CCDC152 (11743942_at) / Fold change /veh CCDC152 (11743942_at) / RFU ECM1 (11717891_a_at) / Fold change /veh ECM1 (11717891_a_at) / RFU IL23R (11748794_a_at) / Fold change /veh IL23R (11748794_a_at) / RFU TNFAIP8L3 (11732012_x_at) / Fold change /veh TNFAIP8L3 (11732012_x_at) / RFU MBOAT4 (11741988_at) / Fold change /veh MBOAT4 (11741988_at) / RFU 11764193_at / Fold change /veh 11764193_at / RFU TMEM53 (11763286_at) / Fold change /veh TMEM53 (11763286_at) / RFU MAGEB2 (11727129_at) / Fold change /veh MAGEB2 (11727129_at) / RFU TMEM200A (11744735_a_at) / Fold change /veh TMEM200A (11744735_a_at) / RFU CCDC152 (11751479_a_at) / Fold change /veh CCDC152 (11751479_a_at) / RFU FAM211A (11726209_a_at) / Fold change /veh FAM211A (11726209_a_at) / RFU RGS16 (11746705_a_at) / Fold change /veh RGS16 (11746705_a_at) / RFU VCAN (11755009_s_at) / Fold change /veh VCAN (11755009_s_at) / RFU RHOB (11743442_s_at) / Fold change /veh RHOB (11743442_s_at) / RFU RGS16 (11720943_a_at) / Fold change /veh RGS16 (11720943_a_at) / RFU RGS16 (11720944_at) / Fold change /veh RGS16 (11720944_at) / RFU, VPS4B / Fold change vs veh, VPS4B / RFU, CREB1 / Fold change vs veh, CREB1 / RFU, DNAJC13 / Fold change vs veh, DNAJC13 / RFU, GNAQ / Fold change vs veh, GNAQ / RFU, CDK5R1 / Fold change vs veh, CDK5R1 / RFU, ZRANB3 / Fold change vs veh, ZRANB3 / RFU, CUL4A / Fold change vs veh, CUL4A / RFU, CCNY / Fold change vs veh, CCNY / RFU, UFL1 / Fold change vs veh, UFL1 / RFU, COG3 / Fold change vs veh, COG3 / RFU, DIAPH2 / Fold change vs veh, DIAPH2 / RFU, SKA2 / Fold change vs veh, SKA2 / RFU, AFF3 / Fold change vs veh, AFF3 / RFU, LMF1 / Fold change vs veh, LMF1 / RFU, IPO11 / Fold change vs veh, IPO11 / RFU, DFFB / Fold change vs veh, DFFB / RFU, FOXP1 / Fold change vs veh, FOXP1 / RFU, CARD8 / Fold change vs veh, CARD8 / RFU, STRN3 / Fold change vs veh, STRN3 / RFU, ADK / Fold change vs veh, ADK / RFU, RASSF2 / Fold change vs veh, RASSF2 / RFU, WIPF1 / Fold change vs veh, WIPF1 / RFU, LARP1B / Fold change vs veh, LARP1B / RFU, RASA1 / Fold change vs veh, RASA1 / RFU, RB1 / Fold change vs veh, RB1 / RFU, PPFIA1 / Fold change vs veh, PPFIA1 / RFU, MAT2A / Fold change vs veh, MAT2A / RFU, CCT5 / Fold change vs veh, CCT5 / RFU, WDR92 / Fold change vs veh, WDR92 / RFU, CUX1 / Fold change vs veh, CUX1 / RFU, TTC7A / Fold change vs veh, TTC7A / RFU, TMEM135 / Fold change vs veh, TMEM135 / RFU, DEPTOR / Fold change vs veh, DEPTOR / RFU, CPM / Fold change vs veh, CPM / RFU, DNAJB6 / Fold change vs veh, DNAJB6 / RFU, CACNA2D3 / Fold change vs veh, CACNA2D3 / RFU, DTX4 / Fold change vs veh, DTX4 / RFU, TFCP2 / Fold change vs veh, TFCP2 / RFU, GMCL1 /// GMCL1P1 / Fold change vs veh, GMCL1 /// GMCL1P1 / RFU, AEBP2 / Fold change vs veh, AEBP2 / RFU, SNHG1 /// SNORD22 /// SNORD25 /// SNORD26 /// SNORD27 /// SNORD28 /// SNORD29 /// SNORD31 / Fold change vs veh, SNHG1 /// SNORD22 /// SNORD25 /// SNORD26 /// SNORD27 /// SNORD28 /// SNORD29 /// SNORD31 / Fold change (Aza/veh), C12orf56 (ProbeSet 11735607_a_at) / Fold change (ACY-1035/veh), C12orf56 (ProbeSet 11735607_a_at) / Fold change (Aza/veh), FGFR1OP (ProbeSet 11751329_s_at) / Fold change (ACY-1035/veh), FGFR1OP (ProbeSet 11751329_s_at) / Fold change (Aza/veh), VPS36 (ProbeSet 11739960_a_at) / Fold change (ACY-1035/veh), VPS36 (ProbeSet 11739960_a_at) / RFU SYPL1 (11715823_x_at) / Fold change /veh SYPL1 (11715823_x_at) / RFU IGFBP7 (11715501_s_at) / Fold change /veh IGFBP7 (11715501_s_at) / RFU REEP3 (11722064_at) / Fold change /veh REEP3 (11722064_at) / RFU IGLL1 (11728026_x_at) / Fold change /veh IGLL1 (11728026_x_at): dose or concentration left out as unconfirmed
Conditions: MV-4-11 cells, 48 hours

Structure (SMILES): Nc1ccc(-c2cccs2)cc1NC(=O)c1ccc2c(c1)cc(C1CC1)n2CCN1CCOCC1 [ACY-1035]
- RFU CAMK2N1 (11719241_x_at): 51.25 RFU
